Read-outs that look alike come from different tables or passages of the source.
What was measured:
[1] = test system: MDA-MB-436 breast cancer cells; assay: Cell proliferation assay, MDA-MB-436; type: cell-based; settings: Homo sapiens, MDA-MB-436, 168 h, read-out: MDA-MB-436 Cell IC50
Outline: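 Cells seeded 16 h, then exposed to a 9-point 1:3 compound dilution series for 7 days at 37° C., 5% CO2; DMSO-matched and cell-free controls. Viability by CellCounting-Lite luminescence; IC50 from log concentration versus % inhibition.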

[2] = target: T1, PARP1 (Homo sapiens (Human), UniProt P09874); assay: PARP enzyme activity assay (PARP1 chemiluminescent assay kit); type: biochemical; settings: enzyme inhibitory activity, read-out: PARP-1 IC50
Outline: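 Chemiluminescent kit measuring PARP1 poly(ADP-ribosylation) of plate-coated histones in presence of activated DNA; compounds in 1:3 serial dilution, top 10 μM before 10-fold buffer dilution. Enzyme (2.5 ng/μL added) reacted 60 min at room temperature, detected by streptavidin-HRP luminescence; IC50 from log-concentration vs % inhibition.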

[3] = target: T1, PARP1; assay: PARP1 trapping assay; type: biochemical; settings: read-out: Inhibitory Effect on PARP1 Trapping IC50
Protocol: (§1) [table] […] 1. A 4× enzyme reaction mixture, comprising PARP1, PARP2, and GST-Tb antibody, was prepared with the buffer and 4 μL of the enzyme reaction mixture was added to a 384-well plate. 2. A 4×PARP1 and PARP2 probe reaction mixture was prepared with the buffer and 4 μL of the probe reaction mixture was added to the 384-well plate. 3. A series of gradient-diluted compounds were prepared and 4 μL of the diluted compounds were added to the 384-well plate, and incubated at room temperature for 45 minutes. 4. After incubation, 4 μL of 4×NAD reaction mixture was added to the 384-well plate and incubated at room temperature for 10 minutes. 5. After incubation, the plate was read using a plate reader. 6. Data Analysis: The percentage inhibition rate was calculated as follows: Inhibition Rate (%)=(Reading of Compound Group−Reading of Blank Group)/(Reading of Vehicle Control Group−Reading of Blank Group).

[4] = Evaluation of pharmacokinetics in rats; type: in vivo; settings: male, SD, rat, plasma, 1 mg/kg, oral gavage (PO, 1 mpk)
Excerpt: Test Animals: 6-8 Week Old Male SD Rats
Food was restored two hours after dosing.

[5] = Liver microsome metabolism assay; settings: CD1, mouse, liver microsomes
Protocol: (§4) Experimental Materials: Mixed CD1 mouse liver microsomal enzyme protein was purchased from Xenotech (#M1000), and NADPH was purchased from Abmole (#M9076).
(§5) 1. To the liver microsomal enzyme reaction system, 210 μL of phosphate buffer was added, followed by 12.5 μL of liver microsomal enzyme at a concentration of 20 mg/mL. Then, 25 μL of NADPH at a concentration of 10 mM was added to the system, mixed well, and incubated in a 37° C. water bath with shaking for 10 minutes.
(§6) 2. The test compound, stored at a concentration of 10 mM, was diluted to 100 μM with DMSO. Then, 2.5 μL of the diluted test compound was added to the reaction system, mixed well, and incubated in a 37° C. water bath with shaking.
(§7) 3. At 0.5, 5, 10, 20, 30, and 60 minutes, 25 μL of the enzyme reaction mixture was taken and added to 125 μL of cold acetonitrile containing dexamethasone as an internal standard. The mixture was centrifuged at 4000 g for 20 minutes, and the supernatant was mixed with an equal volume of distilled water. The mixed sample was then subjected to quantitative analysis by liquid chromatography-mass spectrometry.
(§8) 4. Calculation of in vitro drug metabolism half-life and drug clearance rate:
(§9) t1/2=−0.693/k. (k: the slope of the linear regression of the natural logarithm of the percentage of drug remaining versus incubation time).

[6] = test system: UWB1.289 ovarian cancer cells; assay: Cell proliferation assay, UWB1.289; type: cell-based; settings: UWB1289, 168 h, read-out: UWB1.289 Cell IC50
Protocol: Experimental Materials: MDA-MB-436 or UWB1.289 cell lines were purchased from Cobioer Biosciences Co. Ltd. (Nanjing, China). The STR identification results were a complete match, and mycoplasma testing was negative. MDA-MB-436 cells were cultured in DMEM complete medium containing 10% fetal bovine serum, 1% penicillin-streptomycin, 1% insulin, and 16 μg/mL glutathione; UWB1.289 cells were cultured in RMPI1640 complete medium containing 10% fetal bovine serum and 1% penicillin-streptomycin.
1. MDA-MB-436 or UWB1.289 cells were cultured in the aforementioned medium (culture conditions: 37° C., 5.0% CO2 in air) until they reached the logarithmic growth phase. The cells were then digested with trypsin containing 0.25% EDTA, centrifuged at 1000 rpm, and the supernatant was discarded. Cell culture medium was added, and the cell suspension was adjusted to 2×10^4/mL after counting. 135 μL of the cell suspension per well was taken and cultured in a 96-well cell culture plate for 16 hours (culture conditions: 37° C., 5.0% CO2 in air).
2. The test compounds, stored at a concentration of 10 mM, were diluted 2.5 times with DMSO and then serially diluted in a 1:3 gradient (9 gradients). The gradient-diluted samples were further diluted 40 times with serum-free medium, and 15 μL of each was added to the 96-well cell culture plate. The positive control group received serum-free medium containing the same concentration of DMSO, and the negative control group received medium without cells. The cells were then cultured for an additional 7 days.
3. After the culture period, the cell culture plate was placed at room temperature for 30 minutes. Then, 100 μL of CellCounting-Lite 2.0 reagent (Vazyme, #DD1101) was added to each well, mixed thoroughly, and incubated in the dark at room temperature for 10 minutes. The luminescence signal was read using a Synergy HTX multi-mode reader.
4. Data analysis was performed using GraphPad Prism 8.0 software. The inhibition rate (%) was calculated as 100*(average luminescence signal of the positive control group−luminescence signal of the compound)/(average luminescence signal of the positive control group−average luminescence signal of the negative control group). The IC50 value was obtained by plotting the logarithm of the compound concentration against the percentage inhibition rate.

[7] = target: PARP2 (Homo sapiens (Human), UniProt Q9UGN5); assay: PARP2 trapping assay; type: biochemical; settings: read-out: Inhibitory Effect on PARP2 Trapping IC50
Protocol: as §1

[8] = Evaluation of pharmacokinetics in mice; settings: male, ICR (CD1), mouse, plasma, po, 10 mg/kg
[9] = in vitro; settings: CD1, mouse, microsomes
Protocol: as §4, §5, §6, §7, §8, §9

[10] = in vivo; settings: male, ICR (CD1), mouse, po, 10 mg/kg
[11] = test system: human breast cancer (MDA-MB-436) cell line; assay: Mouse CDX tumor model (MDA-MB-436 subcutaneous xenograft); type: in vivo
Protocol: Test Objective: The efficacy of the compounds was evaluated in a subcutaneous xenograft model of human breast cancer (MDA-MB-436) cell line in mice.
(§2) Test Compounds: Olaparib, Compound 1
Experimental Animals: Female NOD SCID mice, 4-5 weeks old, purchased from Nanjing Jicui.
(§3) Housing and Management: The experimental animals were housed in SPF-grade, temperature- and humidity-controlled clean rooms, using individually ventilated cages (IVC) with no more than 5 mice per cage. Temperature/humidity was controlled within the range of (23±3)° C./40-70%. Feed and water: SPF-grade mouse feed, sterilized by cobalt-60 irradiation. Drinking water was ultrafiltered and autoclaved. Animals had free access to sterile food and water. Animal identification: ear tags.
Tumor Cell Line and Tumor Model: MDA-MB-436 cells (Nanjing Cobioer Biotechnology Co., Ltd., Cat. No: CBP60385) were cultured in vitro in DMEM complete medium containing 10% fetal bovine serum, 1% penicillin-streptomycin, 1% insulin, and 16 μg/mL glutathione (37° C., 5% CO2). When the cells met the requirements for the in vivo efficacy experiment, they were collected, counted, and prepared into a PBS cell suspension. Each mouse (5-6 weeks old NOD SCID) was inoculated subcutaneously on the right flank with 0.9×10^7 cells. Tumor volume was measured and calculated three times a week after inoculation. When the tumor volume reached approximately 200-300 mm^3, the mice were grouped for administration.
Experimental Groups: The experiment was divided into the following groups: vehicle control group; Olaparib 100 mg/kg group; Compound 1 0.1 mg/kg group; Compound 1 0.3 mg/kg group; and Compound 1 1.0 mg/kg group. All groups were administered orally by gavage once daily. […] After 28 days of administration, the tumor volume was used to calculate the tumor growth inhibition rate (TGI %), and the tumor inhibition effect was statistically analyzed using software such as Excel, etc.

[12] = test system: peripheral blood reticulocytes; assay: Effect of compound on rat reticulocytes; type: in vivo; settings: 4 days
Protocol: Test Objective: The effect of the compound on peripheral blood reticulocytes was evaluated to determine its impact on bone marrow hematopoietic function.
as §2
as §3, with “Experimental Animals: Male Sprague Dawley rats were purchased from Beijing Charles River Laboratory Animal Technology Co., Ltd. Housing” for “Housing”, “rats” for “mice”, “rat” for “mouse”
Experimental Method: The experiment was divided into the following 5 groups: vehicle control group; Olaparib 100 mg/kg; Compound 1 0.1 mg/kg; Compound 1 0.3 mg/kg; and Compound 1 1.0 mg/kg. All treatments were administered orally by gavage once daily for 4 days. Blood samples were collected before and after treatment to measure peripheral blood reticulocyte counts.

Sequence of PARP2 (Q9UGN5 whole entry): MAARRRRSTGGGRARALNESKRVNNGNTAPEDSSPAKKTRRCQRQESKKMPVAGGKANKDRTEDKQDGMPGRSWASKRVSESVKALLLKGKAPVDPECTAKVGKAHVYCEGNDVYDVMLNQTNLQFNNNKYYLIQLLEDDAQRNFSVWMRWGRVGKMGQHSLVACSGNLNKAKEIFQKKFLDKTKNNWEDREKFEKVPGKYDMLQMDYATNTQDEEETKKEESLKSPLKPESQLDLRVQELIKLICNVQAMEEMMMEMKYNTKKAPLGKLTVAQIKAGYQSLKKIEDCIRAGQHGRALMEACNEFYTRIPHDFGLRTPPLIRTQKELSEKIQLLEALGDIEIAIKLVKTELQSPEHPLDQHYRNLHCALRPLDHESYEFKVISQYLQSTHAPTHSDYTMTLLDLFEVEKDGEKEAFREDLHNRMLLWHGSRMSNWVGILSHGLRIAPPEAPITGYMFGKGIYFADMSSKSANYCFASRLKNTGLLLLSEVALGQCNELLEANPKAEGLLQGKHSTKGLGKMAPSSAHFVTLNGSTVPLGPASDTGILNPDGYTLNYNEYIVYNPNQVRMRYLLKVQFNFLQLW
T1 sequence (P09874 whole entry): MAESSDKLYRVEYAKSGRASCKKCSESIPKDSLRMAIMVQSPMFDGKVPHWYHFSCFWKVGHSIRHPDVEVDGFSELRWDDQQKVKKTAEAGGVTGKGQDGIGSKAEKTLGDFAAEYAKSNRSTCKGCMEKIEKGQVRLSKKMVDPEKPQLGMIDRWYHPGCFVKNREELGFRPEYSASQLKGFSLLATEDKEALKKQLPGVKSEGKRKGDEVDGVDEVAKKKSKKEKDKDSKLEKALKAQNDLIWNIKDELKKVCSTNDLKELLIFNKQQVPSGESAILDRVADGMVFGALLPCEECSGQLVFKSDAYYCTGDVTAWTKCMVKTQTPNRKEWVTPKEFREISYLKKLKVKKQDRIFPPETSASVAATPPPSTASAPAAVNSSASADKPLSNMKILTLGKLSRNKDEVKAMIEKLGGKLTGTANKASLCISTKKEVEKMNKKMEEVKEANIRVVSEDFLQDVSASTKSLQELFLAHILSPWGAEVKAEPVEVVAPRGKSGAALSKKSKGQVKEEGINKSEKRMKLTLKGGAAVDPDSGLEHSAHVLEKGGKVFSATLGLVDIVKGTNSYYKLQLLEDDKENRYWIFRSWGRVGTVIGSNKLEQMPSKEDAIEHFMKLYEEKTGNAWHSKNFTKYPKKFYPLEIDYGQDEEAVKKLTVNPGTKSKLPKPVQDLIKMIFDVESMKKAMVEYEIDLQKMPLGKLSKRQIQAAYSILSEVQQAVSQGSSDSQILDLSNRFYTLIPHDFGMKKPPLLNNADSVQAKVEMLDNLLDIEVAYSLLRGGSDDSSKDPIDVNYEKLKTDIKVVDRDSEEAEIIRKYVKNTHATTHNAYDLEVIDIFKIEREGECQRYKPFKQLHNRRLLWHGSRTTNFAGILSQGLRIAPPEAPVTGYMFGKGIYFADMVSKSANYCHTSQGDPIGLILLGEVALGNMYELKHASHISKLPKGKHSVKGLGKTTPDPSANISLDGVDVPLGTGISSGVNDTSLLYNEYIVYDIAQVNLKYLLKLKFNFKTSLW

AUC(0-inf) [8] [µg·h/mL]	Cmax [8] [µg/mL]	half-life [8] [min]	IC50 ([6]; proliferation, 7 days) [nM]	Compound	IC50 [3] [nM]	AUC(0-inf) [4] [ng·h/mL]	Cmax [4] [ng/mL]	half-life [4] [min]	IC50 [7] [nM]	IC50 ([1]; proliferation, 7 days) [nM]	further results
				CNC(=O)c1ccc(N2CCN(Cc3cc4[nH]c(=O)c(C(F)(F)F)c(C)c4cn3)CC2)cn1 [Compound 2, N-methyl-5-(4-((4-methyl-2-oxo-3-(trifluoromethyl)-1,2-dihydro-1,6-naphthyridin-7-yl)methyl)piperazin-1-yl)picolinamide]	1.22	19300	2000	304	137		IC50 [1]: 2.32 nM; IC50 [2]: 3.14 nM; microsomal CLint at 1 µM [5]: 0.39 µL/min/mg; IC50 [6]: 2.76 nM
1550	50.2	1550	11.2	CNC(=O)c1ccc(N2CCN(Cc3cnc4c(C)c(C(F)(F)F)c(=O)[nH]c4c3)[C@@H](C)C2)cn1 [Compound 52, (S)—N-methyl-5-(3-methyl-4-((8-methyl-6-oxo-7-(trifluoromethyl)-5,6-dihydro-1,5-naphthyridin-3-yl)methyl)piperazin-1-yl)picolinamide]	1.6	18800	1450	340	271	5.05	
987	48.2	1070	3.34	CNC(=O)c1ccc(N2CCN(Cc3cnc4c(C)c(C(F)(F)F)c(=O)[nH]c4c3)C[C@H]2C)cn1 [Compound 54, (R)—N-methyl-5-(2-methyl-4-((8-methyl-6-oxo-7-(trifluoromethyl)-5,6-dihydro-1,5-naphthyridin-3-yl)methyl)piperazin-1-yl)picolinamide]	1.31	16800	1690	432	192	4.32	
				CNC(=O)c1cnc(C2=CCN(Cc3cnc4c(C)c(C(F)(F)F)c(=O)[nH]c4c3)CC2)cn1 [Compound 79, N-methyl-5-(1-((8-methyl-6-oxo-7-(trifluoromethyl)-5,6-dihydro-1,5-naphthyridin-3-yl)methyl)-1,2,3,6-tetrahydropyridin-4-yl)pyrazine-2-carboxamide]						18.5	microsomal CLint at 1 µM [9]: 0.69 µL/min/mg; AUC(0-inf) [10]: 2420 µg·h/mL; Cmax [10]: 57 µg/mL; half-life [10]: 1830 min
				CNC(=O)c1ccc(C2=CCN(Cc3cc4[nH]c(=O)c(C(F)(F)F)c(C)c4cn3)CC2)cn1 [Compound 89, N-methyl-1′-((4-methyl-2-oxo-3-(trifluoromethyl)-1,2-dihydro-1,6-naphthyridin-7-yl)methyl)-1′,2′,3′,6′-tetrahydro-[3,4′-bipyridine]-6-carboxamide]	1.53					1.06	microsomal CLint at 1 µM [9]: 0.81 µL/min/mg
				O=C(c1cc(Cc2n[nH]c(=O)c3ccccc23)ccc1F)N1CCN(C(=O)C2CC2)CC1 [Olaparib, reference compound]							Tumor Growth Inhibition Rate (TGI) ([11]; 100 mg/kg oral once daily, 28 days): 89%; Body weight vs vehicle control group ([11]; MDA-MB-436 model, all treatment groups): no significant difference; Reticulocyte Inhibition Rate ([12]; 100 mg/kg oral once daily): 91.6%; Effect on peripheral blood reticulocytes (in words) ([12]; 100 mg/kg, p<0.01): significantly reduced

Compound	AUC(0-inf) [8] [µg·h/mL]	Cmax [8] [µg/mL]	half-life [8] [min]	IC50 ([6]; proliferation, 7 days) [nM]	IC50 [3] [nM]	AUC(0-inf) [4] [ng·h/mL]	Cmax [4] [ng/mL]	half-life [4] [min]	IC50 [7] [nM]	IC50 ([1]; proliferation, 7 days) [nM]	further results
CNC(=O)c1ccc(C2=CCN(Cc3cnc4c(C)c(C(F)(F)F)c(=O)[nH]c4c3)CC2)cn1 [Compound 14, N-methyl-1′-((8-methyl-6-oxo-7-(trifluoromethyl)-5,6-dihydro-1,5-naphthyridin-3-yl)methyl)-1′,2′,3′,6′-tetrahydro-[3,4′-bipyridine]-6-carboxamide]	2720	128	1670	4.93	1.38	19200	1770	381	176	2.38	IC50 [2]: 0.83 nM

From patent US20250051324A1, “PARP INHIBITOR, PHARMACEUTICAL COMPOSITION COMPRISING SAME, AND USE THEREOF” (KEYTHERA (SUZHOU) BIO-PHARMACEUTICALS CO., LIMITED, priority 2021, published 2025)
